Results published in ChEMBL document CHEMBL1143533, “A short, stereoselective, and common approach for the synthesis of 4,5-disubstituted delta-lactones simplactone B and its C-5 analogue” (Bioorg Med Chem Lett, 2005).

Assay: Inhibitory concentration against human breast cancer cell line (HBL-100) by MTT method
Type: functional, cell-based
Conditions: Cancer cell lines

## CCCCCCCCCCCCCC[C@@H]1COC(=O)C[C@H]1O
  IC50: 176 nM
